Measurements taken from patent US8604055B2, “Substituted benzylamino quinolines as cholesterol ester-transfer protein inhibitors” (Dr. Reddy's Laboratories Ltd., priority 2004, dated 2013).

Tests used:
Recombinant CETP enzyme = biological target: T1, Recombinant CETP enzyme (Homo sapiens, UniProt P11597); experiment: In vitro fluorescence-based CETP inhibition assay (BODIPY-CE transfer from donor to acceptor microemulsions); format: biochemical; details: recombinant CETP 0.14 ng/μl; transfer of fluorescent cholesteryl ester monitored over 2 hours; vs DMSO controls
T1 construct: purchased Cardiovascular Targets
T1 sequence (P11597 18-493): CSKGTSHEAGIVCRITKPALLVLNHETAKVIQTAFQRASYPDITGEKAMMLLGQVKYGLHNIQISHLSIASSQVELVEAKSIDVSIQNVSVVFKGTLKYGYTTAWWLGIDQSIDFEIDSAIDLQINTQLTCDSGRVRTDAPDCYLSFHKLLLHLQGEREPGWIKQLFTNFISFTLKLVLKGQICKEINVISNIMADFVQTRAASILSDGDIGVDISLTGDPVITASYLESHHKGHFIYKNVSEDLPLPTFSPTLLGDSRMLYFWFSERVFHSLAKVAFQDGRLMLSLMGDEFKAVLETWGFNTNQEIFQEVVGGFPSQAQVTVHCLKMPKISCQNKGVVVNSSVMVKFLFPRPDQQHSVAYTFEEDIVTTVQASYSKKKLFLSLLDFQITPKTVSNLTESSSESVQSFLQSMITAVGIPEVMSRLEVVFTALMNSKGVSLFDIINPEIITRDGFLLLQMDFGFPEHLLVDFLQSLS
Description: An in vitro fluorescence-based assay to identify CETP inhibitors was developed from modifications of the protocols outlined in Bisgaier et al., J Lipid Res., 34(9): 1625-34 (1993) and Epps et al., Chem Phys Lipids., 77(1): 51-63 (1995). Acceptor and donor lipid microemulsions were prepared according to Bisgaier et al., 1993, except that the buffer was prepared with 0.67 ug/mL human HDL (Calbiochem). Donor microemulsions contained the fluorescent cholesteryl ester analog BODIPY-CE (Molecular Probes), characterized by excitation and emission maxima at 503 nm and 518 nm, respectively. The CETP-mediated transfer of fluorescent cholesteryl ester to acceptor particles was monitored over a 2-hour time period using the FAM filter set (excitation 492 nm, emission 516 nm) in an MX3000P fluorescent plate reader (Stratagene). Recombinant CETP enzyme (Cardiovascular Targets) was used at 0.14 ng/μl, final concentration, to achieve lipid transfer. CETP inhibition by compounds was compared to DMSO controlsand graphed as a percentage of the control CETP activity over 2 hours. The IC50 curves for CETP inhibition were generated from the activity profiles. Active compounds were also tested for CETP inhibition as above, but in the presence of 3% human serum albumin, fraction V (Calbiochem).

Structure (SMILES)	IC50 (Recombinant CETP enzyme)	melting point
CCN(CC(C)(C)C)c1nc2c(cc1CN(Cc1cc(C(F)(F)F)cc(C(F)(F)F)c1)c1nnn(C)n1)c(C)nn2C [Example 6, (5-{[(3,5-bis-trifluoromethyl-benzyl)-(2-methyl-2H-tetrazole-5-yl)-amino]-methyl}-1,3-dimethyl-1H-pyrazolo[3,4-b]pyridin-6-yl)-(2,2-dimethyl-propyl)-ethyl-amine]	≤ 1000 nM	72 to 73 °C
CCCSc1nc2c(C)cccc2cc1CN(Cc1cc(C(F)(F)F)cc(C(F)(F)F)c1)C(=O)OCC [Example 135, (3,5-bis-trifluoromethyl-benzyl)-(8-methyl-2-propylsulfanyl-quinolin-3-ylmethyl)-carbamic acid ethyl ester]	–	42 °C
Cc1nn(C)c2nc(N(CC3CCC3)CC3CC3)c(CN(Cc3cc(C(F)(F)F)cc(C(F)(F)F)c3)c3nnn(C)n3)cc12 [Example 5, (5-{[(3,5-bis-trifluoromethyl-benzyl)-(2-methyl-2H-tetrazole-5-yl)-amino]-methyl}-1,3-dimethyl-1H-pyrazolo[3,4-b]pyridin-6-yl)-cyclobutylmethyl-cyclopropylmethyl-amine]	≤ 1000 nM	84 to 85 °C
Cc1cccc2cc(CN(Cc3cc(C(F)(F)F)cc(C(F)(F)F)c3)c3ncc(N4CCOCC4)cn3)c(N(CC3CC3)CC3CC3)nc12 [Example 106, (3-{[(3,5-bis-trifluoromethyl-benzyl)-(5-morpholin-4-yl-pyrimidin-2-yl)-amino]-methyl}-8-methyl-quinolin-2-yl)-bis-cyclopropylmethyl-amine]	–	123 to 124 °C
CCCS(=O)(=O)c1nc2c(C)cccc2cc1CN(Cc1cc(C(F)(F)F)cc(C(F)(F)F)c1)C(=O)OCC [Example 136, (3,5-bis-trifluoromethyl-benzyl)-[8-methyl-2-(propane-1-sulfonyl)-quinolin-3-ylmethyl]-carbamic acid ethyl ester]	–	98 °C
CCOC(=O)c1c(CN(Cc2cc(C(F)(F)F)cc(C(F)(F)F)c2)c2nnn(C)n2)c2ccccc2n1C [Example 125, 3-{[(3,5-bis-trifluoromethyl-benzyl)-(2-methyl-2H-tetrazol-5-yl)-amino]-methyl}-1-methyl-1H-indole-2-carboxylic acid ethyl ester]	–	83 °C
CCN(c1nc2c(cc1CN(Cc1cc(C(F)(F)F)cc(C(F)(F)F)c1)c1nnn(C)n1)c(C)nn2C)C1CCCC1 [Example 8, (5-{[(3,5-bis-trifluoromethyl-benzyl)-(2-methyl-2H-tetrazole-5-yl)-amino]-methyl}-1,3-dimethyl-1H-pyrazolo[3,4-b]pyridin-6-yl)-cyclopentyl-ethyl-amine]	≤ 1000 nM	43 to 44 °C
CCN(CC1CCCC1)c1nc2c(cc1CN(Cc1cc(C(F)(F)F)cc(C(F)(F)F)c1)c1nc(C(F)(F)F)co1)c(C)nn2C [Example 22, (5-{[(3,5-bis-trifluoromethyl-benzyl)-(4-trifluoromethyl-oxazol-2-yl)-amino]-methyl}-1,3-dimethyl-1H-pyrazolo[3,4-b]-pyridin-6-yl)-cyclopentylmethyl-ethyl-amine]	≤ 1000 nM	139 °C
CCC[S+]([O-])c1nc2c(C)cccc2cc1CN(Cc1cc(C(F)(F)F)cc(C(F)(F)F)c1)C(=O)OCC (stereo not shown) [Example 137, (3,5-bis-trifluoromethyl-benzyl)-[8-methyl-2-(propane-1-sulfinyl)-quinolin-3-ylmethyl]-carbamic acid ethyl ester]	–	86 °C
CCN(CC1CCC1)c1nc2ccccc2cc1CN(Cc1cc(C(F)(F)F)cc(C(F)(F)F)c1)C(=O)OC [Example 45]	≤ 5000 nM	–

Continued, values first:

IC50 (Recombinant CETP enzyme)	melting point	Structure (SMILES)
≤ 5000 nM	110 °C	CCN(CC1CCCC1)c1nc2ccccc2cc1CN(Cc1cc(C(F)(F)F)cc(C(F)(F)F)c1)c1nnnn1C [Example 53, (3-{[(3,5-bis-trifluoromethyl-benzyl)-(1-methyl-1H-tetrazol-5-yl)-amino]-methyl}-quinolin-2-yl)-cyclopentylmethyl-ethyl-amine]
≤ 5000 nM	158 to 160 °C	CCOC(=N)N(Cc1cc(C(F)(F)F)cc(C(F)(F)F)c1)Cc1cc2ccccc2nc1N(CC)CC1CCCC1 [Example 61]
≤ 5000 nM	126 to 127 °C	CCN(CC1CCCC1)c1nc2ccccc2cc1CN(Cc1cc(C(F)(F)F)cc(C(F)(F)F)c1)c1nnc(C)o1 [Example 58, (3-{[(3,5-bis-trifluoromethyl-benzyl)-(5-methyl-[1,3,4]oxodiazol-2-yl)-amino]-methyl)-quinolin-2-yl)-cyclopentylmethyl-ethyl-amine]
≤ 1000 nM	63 °C	Cc1cccc2cc(CN(Cc3cc(C(F)(F)F)cc(C(F)(F)F)c3)c3nnn(C)n3)c(N(CC3CC3)CC3CC3)nc12 [Example 57]
–	98 °C	CCN(CC1CCCC1)c1nc2ccccc2cc1CN(Cc1cc(C(F)(F)F)cc(C(F)(F)F)c1)C(N)=S [Example 62, 1-(3,5-bis-trifluoromethyl-benzyl)-1-[2-(cyclopentylmethyl-ethyl-amino)-quinolin-3-ylmethyl]-thiourea]
≤ 1000 nM	97 °C	CCN(CC1CCCC1)c1nc2ccccc2cc1CN(Cc1cc(C(F)(F)F)cc(C(F)(F)F)c1)c1nnn(C)n1 [Example 52]
≤ 5000 nM	92 to 94 °C	CCN(CC1CCCC1)c1nc2ccccc2cc1CN(Cc1cc(C(F)(F)F)cc(C(F)(F)F)c1)C(N)=O [Example 59, 1-(3,5 bistrifluoromethyl-benzyl)-1-[(2-cyclopentylmethyl-ethyl-amino)-quinoline-3-ylmethyl]-urea]
≤ 1000 nM	76 to 77 °C	CCN(CC1CCC1)c1nc2c(cnn2CC)cc1CN(Cc1cc(C(F)(F)F)cc(C(F)(F)F)c1)c1nnn(C)n1 [Example 15, (5-{[(3,5-bis-trifluoromethyl-benzyl)-(2-methyl-2H-tetrazol-5-yl)-amino]-methyl}-1-ethyl-1H-pyrazolo[3,4-b]-yridin-6-yl)-cyclobutylmethyl-ethyl-amine]
≤ 5000 nM	–	CCOC(=O)N(Cc1cc(C(F)(F)F)cc(C(F)(F)F)c1)Cc1cc2ccccc2nc1N(CC)CC1CCCCC1 [Example 42, (3,5-bis-trifluoromethyl-benzyl)-[2-(cyclohexylmethyl-ethyl-amino)-quinolin-3-ylmethyl]-carbamic acid ethyl ester]
≤ 5000 nM	–	CCN(CC1CCCC1)c1nc2ccccc2cc1CN(Cc1cc(C(F)(F)F)cc(C(F)(F)F)c1)c1nc(C)cs1 [Example 63]
